EC50, IC50 and Activity data for two compounds are collected here from ChEMBL document CHEMBL1759920, “C20-trifluoro-5-oxo-ETE: a metabolically stable 5-oxo-ETE derivative” (Bioorg Med Chem Lett, 2011).

SMILES strings stand for the structures. Activity calls are given as the source filed them. The rule behind the calls is not given here.

The subject of experiment [1] is Neutrophil. As to the kind of experiment: Induction of intracellular calcium level in indo-1-labeled human neutrophils cells assessed as calcium mobilization. The experiment is classed as functional, cell-based. In general terms: Calcium assays in cells follow changes in intracellular calcium, usually with a dye or a luminescent sensor.
In experiment [2] the target is T1, Oxoeicosanoid receptor 1 (Homo sapiens, UniProt Q8TDS5). As to the kind of experiment: Desensitization of 5-oxo-ETE receptor in indo-1-labeled human neutrophils assessed as inhibition of 5-oxo-ETE-induced calcium mobilization. It counts as functional.
Experiment [3] has as its system Neutrophil. As to the kind of experiment: Induction of intracellular calcium level in indo-1-labeled human neutrophils cells assessed as calcium mobilization relative to 5-oxo-ETE. It counts as functional.
In experiment [4] the target is T1, Oxoeicosanoid receptor 1. Description: Agonist activity at 5-oxo-ETE receptor in indo-1-labeled human neutrophils assessed as stimulation intracellular calcium level at 100 nM followed by 5-oxo-ETE addition at 2.5 mins in presence of digitonin added at 3.5 mins. The experiment is classed as functional, cell-based.

T1 sequence (Q8TDS5 whole entry): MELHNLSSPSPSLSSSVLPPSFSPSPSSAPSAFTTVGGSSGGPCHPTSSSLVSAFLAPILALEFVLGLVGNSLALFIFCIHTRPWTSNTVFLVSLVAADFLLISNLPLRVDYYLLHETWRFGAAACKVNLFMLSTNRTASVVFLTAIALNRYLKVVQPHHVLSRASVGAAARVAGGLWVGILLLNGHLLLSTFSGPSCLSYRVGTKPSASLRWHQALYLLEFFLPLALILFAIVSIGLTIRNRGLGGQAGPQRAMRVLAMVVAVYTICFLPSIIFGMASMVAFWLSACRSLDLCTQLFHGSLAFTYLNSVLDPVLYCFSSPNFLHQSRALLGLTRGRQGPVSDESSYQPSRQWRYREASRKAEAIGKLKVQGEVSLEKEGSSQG

For the compound `CCCCC/C=C\C/C=C\C/C=C\C=C\C(=O)CCCC(=O)O` [5-OXO-ETE], in the experiment on Neutrophil [1], the EC50 stood at 4 nM. The IC50 at Oxoeicosanoid receptor 1 [2] came to 3 nM.

In the case of `O=C(O)CCCC(=O)/C=C/C=C\C/C=C\C/C=C\CCCCC(F)(F)F`, the Activity with Neutrophil [3] amounted to 50%. Besides, the half-inhibitory concentration (IC50) on Oxoeicosanoid receptor 1 [2] was 7.5 nM. For the same compound, at Oxoeicosanoid receptor 1 [4], the result was Active.

Usually EC50 stands for the concentration that produces a half-maximal response. A word on the IC50: it is the concentration that gives 50% inhibition.
